According to patent publication US11584747B2, “Substituted pyridopyrimidinonyl compounds useful as T cell activators” (BRISTOL-MYERS SQUIBB COMPANY, priority 2019, dated 2023):
Where two headings read alike, the source gives them in different places.

Key:
[1] = test system: whole blood (pERK); assay: pERK Whole Blood; assay type: cell-based
[2] = molecular target: T1, human DGKα (Homo sapiens (Human), UniProt P23743); assay: DGKα LIPGLO assay (extruded liposome substrate, ADP-Glo luminescence); assay type: biochemical; conditions: liposome assay; read-out: DGK alpha LIPGLO IC50
T1 sequence (P23743 whole entry, looked up): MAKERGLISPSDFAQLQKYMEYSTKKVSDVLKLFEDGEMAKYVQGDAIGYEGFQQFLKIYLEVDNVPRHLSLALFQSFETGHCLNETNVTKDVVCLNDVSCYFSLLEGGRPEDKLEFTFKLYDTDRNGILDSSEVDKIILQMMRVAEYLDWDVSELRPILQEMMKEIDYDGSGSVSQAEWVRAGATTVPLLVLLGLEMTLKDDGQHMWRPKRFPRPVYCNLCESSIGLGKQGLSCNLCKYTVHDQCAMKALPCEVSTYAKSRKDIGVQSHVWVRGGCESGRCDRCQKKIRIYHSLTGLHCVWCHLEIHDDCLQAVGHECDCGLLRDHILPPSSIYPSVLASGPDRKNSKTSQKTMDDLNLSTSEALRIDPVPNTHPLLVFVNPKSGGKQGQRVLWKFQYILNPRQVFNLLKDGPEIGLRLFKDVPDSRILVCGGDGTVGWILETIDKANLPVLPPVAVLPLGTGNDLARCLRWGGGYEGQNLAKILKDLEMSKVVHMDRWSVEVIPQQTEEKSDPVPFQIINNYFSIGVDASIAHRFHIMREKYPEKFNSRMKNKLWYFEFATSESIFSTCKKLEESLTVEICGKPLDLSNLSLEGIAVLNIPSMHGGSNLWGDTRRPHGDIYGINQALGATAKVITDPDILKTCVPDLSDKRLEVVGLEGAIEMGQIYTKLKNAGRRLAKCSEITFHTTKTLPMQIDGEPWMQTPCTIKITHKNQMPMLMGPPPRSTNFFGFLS

[3] = molecular target: human DGKζ (Homo sapiens (Human), UniProt Q13574); assay: DGKζ LIPGLO assay (extruded liposome substrate, ADP-Glo luminescence); assay type: biochemical
human DGKζ, sequence (Q13574 other isoform, or with tags, fused parts or gaps): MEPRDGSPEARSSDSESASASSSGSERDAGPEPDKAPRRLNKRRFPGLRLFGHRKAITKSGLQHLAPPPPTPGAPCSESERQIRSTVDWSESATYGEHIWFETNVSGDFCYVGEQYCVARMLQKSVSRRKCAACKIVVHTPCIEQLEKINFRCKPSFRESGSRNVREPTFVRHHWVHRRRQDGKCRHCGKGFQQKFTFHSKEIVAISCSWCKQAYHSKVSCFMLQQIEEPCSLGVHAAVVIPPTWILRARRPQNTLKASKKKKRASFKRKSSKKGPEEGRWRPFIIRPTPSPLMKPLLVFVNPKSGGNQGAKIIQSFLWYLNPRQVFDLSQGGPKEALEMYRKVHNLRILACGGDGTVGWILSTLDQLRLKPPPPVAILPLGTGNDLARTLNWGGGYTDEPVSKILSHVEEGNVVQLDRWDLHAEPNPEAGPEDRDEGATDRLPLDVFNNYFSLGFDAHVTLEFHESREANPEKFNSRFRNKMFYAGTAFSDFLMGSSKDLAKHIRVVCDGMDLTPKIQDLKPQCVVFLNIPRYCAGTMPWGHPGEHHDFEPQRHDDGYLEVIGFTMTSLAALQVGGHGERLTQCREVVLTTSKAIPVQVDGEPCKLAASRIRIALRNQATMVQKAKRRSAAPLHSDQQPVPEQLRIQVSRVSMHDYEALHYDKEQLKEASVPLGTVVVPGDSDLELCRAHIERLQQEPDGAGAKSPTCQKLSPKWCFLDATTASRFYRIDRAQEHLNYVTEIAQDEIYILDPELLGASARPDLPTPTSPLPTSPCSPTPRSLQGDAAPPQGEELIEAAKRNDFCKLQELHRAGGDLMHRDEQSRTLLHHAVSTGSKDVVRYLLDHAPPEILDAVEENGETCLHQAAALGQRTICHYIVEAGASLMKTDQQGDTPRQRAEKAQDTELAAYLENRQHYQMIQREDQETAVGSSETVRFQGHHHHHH

[4] = molecular target: T1, human DGKα; assay: DGKα ADPGLO assay (detergent/lipid micelle substrate); assay type: biochemical; conditions: truncated DGK alpha; read-out: DGK alpha ADPGLO (Truncated) IC50
Procedure: DGK Alpha ADPGLO (Truncated) IC50 (uM)
The detergent/lipid micelle was prepared by combining 15 g phosphatidylserine (Avanti 840035P) and 1 g diacylglycerol (8008110) and dissolving into 150 mL chloroform in a 2 L round bottom flask. Chloroform was removed under high vacuum by rotary evaporation. […] The lipid/detergent solution was split into 5 mL aliquots and stored at −80° C.

[5] = test system: human venous whole blood (IFN-γ); assay: Human whole blood IFN-γ assay; assay type: cell-based; conditions: whole blood, normalized to 3 μM reference compound as 100% activation, read-out: IFN-γ Whole Blood Normalized EC50
Procedure: Human venous whole blood (22.5 μL per well), obtained from healthy donors, was pre-treated with compounds for one hour at 37° C. in a humidified 95% air/5% CO2 incubator. The blood was stimulated with 2.5 μL anti-human CD3 and anti-CD28 mAb at a final concentration of 1 μg/mL each for 24 hours at 37° C. IFN-γ in the supernatants was measured using AlphLISA kit (Cat #AL217).

[6] = test system: whole blood (pERK); assay: pERK Whole Blood assay (Table A; no whole-blood pERK method described); assay type: cell-based; conditions: normalized
[7] = liposome assay, read-out: DGK zeta LIPGLO IC50
[8] = liposome (LIPGLO) assay, read-out: DGK zeta (liposome assay) IC50

SMILES | EC50 [1] [nM] | IC50 [2] [nM] | IC50 [3, 7] [nM] | IC50 [4] [nM] | EC50 [5] [nM] | IC50 [6] [nM] | EC50 ([5]; Homo sapiens) [nM] | IC50 [3, 8] [nM]
CC[C@H]1CN(C(C)c2ccc(C(F)(F)F)cc2)[C@H](CC)CN1c1nc(=O)n(C)c2ccc(OCCOC)nc12 (stereo partly drawn) [Example 434, 4-((2S,5R)-2,5-diethyl-4-(1-(4-(trifluoromethyl)phenyl)ethyl)piperazin-1-yl)-6-(2-methoxyethoxy)-1-methylpyrido[3,2-d]pyrimidin-2(1H)-one] | 20000 |  |  |  |  |  |  | 
CC[C@@H]1CN(c2nc(=O)n(C)c3ccc(C#N)nc23)[C@@H](C)CN1C(c1ccc(OC(F)(F)F)cc1)c1ccccn1 (single isomer, unassigned) [Example 94] |  | 200 | 86 | 16 | 43 | 220 |  | 
CC[C@@H]1CN(c2nc(=O)n(C)c3ccc(C#N)nc23)[C@@H](C)CN1C(c1ccc(OC(F)(F)F)cc1)c1cc(C2CC2)on1 (stereo partly drawn) [Example 99, 4-((2S,5R)-4-((5-cyclopropylisoxazol-3-yl)(4-(trifluoromethoxy)phenyl)methyl)-5-ethyl-2-methylpiperazin-1-yl)-1-methyl-2-oxo-1,2-dihydropyrido[3,2-d]pyrimidine-6-carbonitrile] |  | 130 | 120 | 4 |  | 140 | 120 | 
C[C@@H]1CN(c2nc(=O)n(C)c3ccc(C#N)nc23)[C@@H](C)CN1C(c1ccc(F)cc1)C12CC(C(F)(F)F)(C1)C2 (stereo partly drawn) [Example 452, 4-((2S,5R)-4-((4-fluorophenyl)(3-(trifluoromethyl)bicyclo[1.1.1]pentan-1-yl)methyl)-2,5-dimethylpiperazin-1-yl)-1-methyl-2-oxo-1,2-dihydropyrido[3,2-d]pyrimidine-6-carbonitrile] | 20000 |  |  |  |  |  |  | 
CC[C@@H]1CN(c2nc(=O)n(C)c3ccc(C#N)nc23)[C@@H](C)CN1C(c1ccc(F)cc1)c1nc(C2CC2)no1 (stereo partly drawn) [Example 112, 4-((2S,5R)-4-((3-cyclopropyl-1,2,4-oxadiazol-5-yl)(4-fluorophenyl)methyl)-5-ethyl-2-methylpiperazin-1-yl)-1-methyl-2-oxo-1,2-dihydropyrido[3,2-d]pyrimidine-6-carbonitrile] |  | 43 | 22 | 11 | 11 | 15 |  | 
CCC(c1ccc(OC(F)(F)F)cc1)N1C[C@H](C)N(c2nc(=O)n(C)c3ccc(C#N)nc23)C[C@H]1CC (single isomer, unassigned) [Example 84] |  | 3220 | 2090 | 54 | 670 | 780 |  | 
CCC(c1ccc(OC(F)(F)F)cc1)N1C[C@H](CC)N(c2nc(=O)n(C)c3ccc(C#N)nc23)C[C@H]1CC (single isomer, unassigned) [Example 36] |  | 16 | 75 | 190 | 82 | 250 |  | 
CC[C@H]1CN(C(c2ccc(OC(F)(F)F)cc2)c2cc(C3CC3)on2)[C@H](CC)CN1c1nc(=O)n(C)c2ccc(C#N)nc12 (single isomer, unassigned) [Example 43] |  | 22 | 130 | 82 | 120 | 340 |  | 
CC[C@@H]1CN(c2nc(=O)n(C)c3ccc(C#N)nc23)[C@@H](C)CN1C(c1ccc(F)cc1)c1ccc(C(F)(F)F)nc1 (single isomer, unassigned) [Example 98] |  | 310 | 55 | 26 | 88 | 140 |  | 
CCC(c1ccc(OC(F)(F)F)cc1)N1C[C@H](C)N(c2nc(=O)n(C)c3ccc(C#N)nc23)C[C@H]1CC (single isomer, unassigned) [Example 83] |  | 97 | 160 | 15 | 17 | 87 |  | 
CC[C@@H]1CN(c2nc(=O)n(C)c3ccc(C#N)nc23)[C@@H](C)CN1C(C)c1ccc(C(F)(F)F)c(CN2CCCCC2)c1 (stereo partly drawn) [Example 354, 4-((2S,5R)-5-ethyl-2-methyl-4-(1-(3-(piperidin-1-ylmethyl)-4-(trifluoromethyl)phenyl)ethyl)piperazin-1-yl)-1-methyl-2-oxo-1,2-dihydropyrido[3,2-d]pyrimidine-6-carbonitrile] | 7950 |  |  |  |  |  |  | 650
CC[C@@H]1CN(c2nc(=O)n(C)c3ccc(C#N)nc23)[C@@H](C)CN1C(C)c1ccc(C2(C#N)CC2)cc1 (stereo partly drawn) [Example 326, 4-((2S,5R)-4-(1-(4-(1-cyanocyclopropyl)phenyl)ethyl)-5-ethyl-2-methylpiperazin-1-yl)-1-methyl-2-oxo-1,2-dihydropyrido[3,2-d]pyrimidine-6-carbonitrile] | 3480 |  |  |  |  |  |  | 
CC[C@H]1CN(C(c2ccc(F)cc2)c2nc(C3CC3)nn2C)[C@H](CC)CN1c1nc(=O)n(C)c2ccc(C#N)nc12 (single isomer, unassigned) [Example 295] |  | 7230 | 820 | 100 | 580 | 100 |  | 
CC[C@H]1CN(C(C)c2ccc(C(F)(F)F)cc2F)[C@H](CC)CN1c1nc(=O)n(C)c2ccc(C#N)nc12 (single isomer, unassigned) [Example 26] |  | 81 | 210 | 29 | 180 | 240 |  | 
CCC(c1ccc(OC(F)(F)F)cc1F)N1C[C@H](C)N(c2nc(=O)n(C)c3ccc(C#N)nc23)C[C@H]1CC (single isomer, unassigned) [Example 85] |  | 210 | 91 | 66 | 22 | 66 |  | 
CCC(c1ccc(C(F)(F)F)cc1)N1C[C@H](C)N(c2nc(=O)n(C)c3ccc(C#N)nc23)C[C@H]1CC (single isomer, unassigned) [Example 89] |  | 55 | 110 | 60 |  | 260 | 35 | 
CC[C@@H]1CN(c2nc(=O)n(C)c3ccc(C#N)nc23)[C@@H](C)CN1C(c1ccc(F)cc1)c1nc(C2CC2)no1 (stereo partly drawn) [Example 113, 4-((2S,5R)-4-((3-cyclopropyl-1,2,4-oxadiazol-5-yl)(4-fluorophenyl)methyl)-5-ethyl-2-methylpiperazin-1-yl)-1-methyl-2-oxo-1,2-dihydropyrido[3,2-d]pyrimidine-6-carbonitrile] |  | 47 | 46 | 10 | 57 | 170 |  | 
CC[C@@H]1CN(c2nc(=O)n(C)c3ccc(C#N)nc23)[C@@H](C)CN1C(c1ccc(F)cc1)c1ccc(C(F)(F)F)nc1 (single isomer, unassigned) [Example 97] |  | 630 | 45 | 210 |  | 380 | 99 | 
C[C@@H]1CN(c2nc(=O)n(C)c3ccc(C#N)nc23)[C@@H](C)CN1C(c1ccc(F)cc1)C12CC(C(F)(F)F)(C1)C2 (stereo partly drawn) [Example 451, 4-((2S,5R)-4-((4-fluorophenyl)(3-(trifluoromethyl)bicyclo[1.1.1]pentan-1-yl)methyl)-2,5-dimethylpiperazin-1-yl)-1-methyl-2-oxo-1,2-dihydropyrido[3,2-d]pyrimidine-6-carbonitrile] | 20000 |  |  |  |  |  |  | 
CC[C@H]1CN(C(c2ccc(OC(F)(F)F)cc2)c2cc(C3CC3)on2)[C@H](CC)CN1c1nc(=O)n(C)c2ccc(C#N)nc12 (single isomer, unassigned) [Example 42] |  | 78 | 110 | 7 |  | 350 | 81 | 
CC[C@@H]1CN(c2nc(=O)n(C)c3ccc(C#N)nc23)[C@@H](C)CN1C(C)c1ccc(C(F)(F)F)c(CN2CCCCC2)c1 (stereo partly drawn) [Example 355, 4-((2S,5R)-5-ethyl-2-methyl-4-(1-(3-(piperidin-1-ylmethyl)-4-(trifluoromethyl)phenyl)ethyl)piperazin-1-yl)-1-methyl-2-oxo-1,2-dihydropyrido[3,2-d]pyrimidine-6-carbonitrile] | 6690 |  |  |  |  |  |  | 41700
CC[C@H]1CN(C(C)c2ccc(C3CC3)cc2F)[C@H](CC)CN1c1nc(=O)n(C)c2ccc(C#N)nc12 (single isomer, unassigned) [Example 40] |  | 320 | 41 |  | 21 | 10 |  | 
CC(c1ccc(OC(F)(F)F)cc1)N1C[C@H](C)N(c2nc(=O)n(C)c3ccc(C#N)nc23)C[C@H]1C (single isomer, unassigned) [Example 131] |  | 10 | 130 |  | 360 | 170 |  | 
CC[C@@H]1CN(c2nc(=O)n(C)c3ccc(C#N)nc23)[C@@H](C)CN1C(c1ccc(OC(F)(F)F)cc1)c1cc(C2CC2)on1 (single isomer, unassigned) [Example 100] |  | 250 | 110 | 11 |  | 320 | 44 | 
